Measurements published in ChEMBL document CHEMBL1201862, “PubChem BioAssay data set” (2004).
Calls of active or inactive are those of the source.

Legend:
[1] = test system: CHO-K1; experiment: (§1) Counterscreen for antagonists of the orexin 1 receptor (OX1R; HCRTR1): Homogeneous time resolved fluorescence (HTRF)-based cell-based dose response assay to identify antagonists of the parental CHO-K1 cell line. [Related pubchem assays (depositor defined):AID434989, AID435008, AID463079, AID485270, AID492963, AID492964, AID492965, AID493232, AID504699, AID504701]; type: functional; settings: Cricetulus griseus
[2] = as §1, with “Fluorescence-based” for “Homogeneous time resolved fluorescence (HTRF)-based”, “cell-based high throughput” for “cell-based”, “CHO” for “CHO-K1”; type: functional
[3] = molecular target: T1, Orexin/Hypocretin receptor type 1 (Homo sapiens, UniProt O43613); experiment: Homogeneous Time Resolved Fluorescence (HTRF)-based cell-based high throughput dose response assay for antagonists of the orexin 1 receptor (OX1R; HCRTR1). [Related pubchem assays (depositor defined):AID434989, AID435008, AID463079, AID485270, AID492963, AID492964, AID492965, AID493232, AID504717, AID504718]; type: functional
T1 sequence (O43613 whole entry): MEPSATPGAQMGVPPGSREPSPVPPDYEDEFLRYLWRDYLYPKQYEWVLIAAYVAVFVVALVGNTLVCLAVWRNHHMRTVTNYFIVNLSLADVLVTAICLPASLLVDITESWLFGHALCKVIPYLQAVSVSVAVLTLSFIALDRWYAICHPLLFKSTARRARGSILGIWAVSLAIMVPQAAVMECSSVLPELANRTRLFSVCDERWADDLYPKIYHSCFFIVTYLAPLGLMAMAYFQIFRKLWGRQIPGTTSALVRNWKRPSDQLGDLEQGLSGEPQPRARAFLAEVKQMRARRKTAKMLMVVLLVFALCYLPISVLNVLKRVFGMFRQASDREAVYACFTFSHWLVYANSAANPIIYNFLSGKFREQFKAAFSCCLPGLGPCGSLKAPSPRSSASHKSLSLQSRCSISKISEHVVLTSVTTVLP

[4] = molecular target: T1, Orexin/Hypocretin receptor type 1; experiment: Fluorescence-based cell-based high throughput dose response assay for antagonists of the orexin 1 receptor (OX1R; HCRTR1). [Related pubchem assays (depositor defined):AID434989, AID435008, AID463079, AID485270, AID492963, AID492964, AID492965, AID493232, AID504717, AID504718]; type: functional
[5] = molecular target: T2, Orexin receptor type 2 (Homo sapiens, UniProt O43614); experiment: Counterscreen assay for antagonists of the orexin 1 receptor (OX1R; HCRTR1): Fluorescence-based cell-based dose response assay for antagonists of the orexin 2 receptor (OX2R; HCRTR2), run by assay provider.; type: functional
T2 sequence (O43614 whole entry): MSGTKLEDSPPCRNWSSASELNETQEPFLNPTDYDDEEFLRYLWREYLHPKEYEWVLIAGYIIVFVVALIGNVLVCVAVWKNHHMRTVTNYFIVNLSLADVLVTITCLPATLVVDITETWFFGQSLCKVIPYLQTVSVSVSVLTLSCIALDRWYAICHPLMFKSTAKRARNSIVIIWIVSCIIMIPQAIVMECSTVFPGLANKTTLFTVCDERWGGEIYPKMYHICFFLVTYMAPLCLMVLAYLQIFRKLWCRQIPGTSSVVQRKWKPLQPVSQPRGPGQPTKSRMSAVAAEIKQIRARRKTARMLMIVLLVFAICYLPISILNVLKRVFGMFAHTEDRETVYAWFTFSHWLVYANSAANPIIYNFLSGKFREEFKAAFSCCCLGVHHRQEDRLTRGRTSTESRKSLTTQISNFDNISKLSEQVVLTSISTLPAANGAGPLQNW

[6] = molecular target: T2, Orexin receptor type 2; experiment: Counterscreen assay for antagonists of the orexin 1 receptor (OX1R; HCRTR1): Homogeneous Time Resolved Fluorescence (HTRF)-based cell-based dose response assay for antagonists of the orexin 2 receptor (OX2R; HCRTR2), run by assay provider.; type: functional
[7] = test system: HeLa; experiment: ATP-based viability loss in HeLa cells – cell-based, CellTiter-Glo luminescence, cherry-pick samples, cytotoxicity control for MITF activator project, dose response (AID 540259); type: functional; settings: Homo sapiens
[8] = molecular target: Nonstructural protein 1 (Influenza A virus, UniProt Q194T2); type: functional, Influenza A virus (A/California/07/2009(H1N1))
Chain of Nonstructural protein 1 (Q194T2 whole entry): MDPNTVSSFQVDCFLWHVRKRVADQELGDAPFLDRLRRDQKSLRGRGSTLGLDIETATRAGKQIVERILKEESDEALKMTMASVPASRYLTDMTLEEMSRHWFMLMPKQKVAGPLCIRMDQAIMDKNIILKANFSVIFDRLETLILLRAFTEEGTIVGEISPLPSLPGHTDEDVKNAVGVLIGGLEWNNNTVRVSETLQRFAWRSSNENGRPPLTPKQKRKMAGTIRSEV

[9] = molecular target: T3, Hexokinase HKDC1 (Homo sapiens, UniProt Q2TB90); experiment: inhibition of HKDC1 glucose phosphorylation – biochemical, W721R variant, dose response (AID 504729); type: functional
T3 sequence (Q2TB90 whole entry): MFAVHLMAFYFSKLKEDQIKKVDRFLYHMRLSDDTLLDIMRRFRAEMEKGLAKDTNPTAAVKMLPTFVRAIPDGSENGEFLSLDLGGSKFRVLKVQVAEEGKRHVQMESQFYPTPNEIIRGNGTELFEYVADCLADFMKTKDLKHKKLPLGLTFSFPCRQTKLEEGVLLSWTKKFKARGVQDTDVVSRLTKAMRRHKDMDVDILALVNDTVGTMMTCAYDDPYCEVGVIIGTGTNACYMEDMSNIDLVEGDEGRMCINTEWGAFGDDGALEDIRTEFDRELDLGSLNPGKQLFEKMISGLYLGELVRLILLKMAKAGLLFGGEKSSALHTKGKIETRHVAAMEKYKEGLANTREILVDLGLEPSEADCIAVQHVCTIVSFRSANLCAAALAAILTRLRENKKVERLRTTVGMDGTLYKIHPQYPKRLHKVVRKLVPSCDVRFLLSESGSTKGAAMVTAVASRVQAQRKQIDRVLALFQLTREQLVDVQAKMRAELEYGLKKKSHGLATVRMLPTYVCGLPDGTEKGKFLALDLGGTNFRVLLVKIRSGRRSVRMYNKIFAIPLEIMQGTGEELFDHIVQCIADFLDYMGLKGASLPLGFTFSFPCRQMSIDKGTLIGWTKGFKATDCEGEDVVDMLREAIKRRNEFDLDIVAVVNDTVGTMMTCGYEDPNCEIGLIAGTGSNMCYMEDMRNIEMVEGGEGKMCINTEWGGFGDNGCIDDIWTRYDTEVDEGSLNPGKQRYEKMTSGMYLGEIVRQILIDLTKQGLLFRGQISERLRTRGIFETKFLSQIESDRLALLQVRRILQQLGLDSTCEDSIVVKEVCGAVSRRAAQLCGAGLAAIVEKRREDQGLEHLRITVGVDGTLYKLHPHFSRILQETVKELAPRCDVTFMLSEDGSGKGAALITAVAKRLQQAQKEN

[10] = test system: Vero; experiment: viability of Vero cells under compound – cytotoxicity control for flavivirus capping enzyme inhibitors (AID 588742); type: functional; settings: Chlorocebus sabaeus
[11] = molecular target: Genome polyprotein (dengue virus type 2, UniProt P29990); experiment: flavivirus cap methylation enzyme inhibition – biochemical, confirmation dose response, primary screen (AID 588689); type: functional
Chain of Genome polyprotein (P29990 2492-3391 limits assumed): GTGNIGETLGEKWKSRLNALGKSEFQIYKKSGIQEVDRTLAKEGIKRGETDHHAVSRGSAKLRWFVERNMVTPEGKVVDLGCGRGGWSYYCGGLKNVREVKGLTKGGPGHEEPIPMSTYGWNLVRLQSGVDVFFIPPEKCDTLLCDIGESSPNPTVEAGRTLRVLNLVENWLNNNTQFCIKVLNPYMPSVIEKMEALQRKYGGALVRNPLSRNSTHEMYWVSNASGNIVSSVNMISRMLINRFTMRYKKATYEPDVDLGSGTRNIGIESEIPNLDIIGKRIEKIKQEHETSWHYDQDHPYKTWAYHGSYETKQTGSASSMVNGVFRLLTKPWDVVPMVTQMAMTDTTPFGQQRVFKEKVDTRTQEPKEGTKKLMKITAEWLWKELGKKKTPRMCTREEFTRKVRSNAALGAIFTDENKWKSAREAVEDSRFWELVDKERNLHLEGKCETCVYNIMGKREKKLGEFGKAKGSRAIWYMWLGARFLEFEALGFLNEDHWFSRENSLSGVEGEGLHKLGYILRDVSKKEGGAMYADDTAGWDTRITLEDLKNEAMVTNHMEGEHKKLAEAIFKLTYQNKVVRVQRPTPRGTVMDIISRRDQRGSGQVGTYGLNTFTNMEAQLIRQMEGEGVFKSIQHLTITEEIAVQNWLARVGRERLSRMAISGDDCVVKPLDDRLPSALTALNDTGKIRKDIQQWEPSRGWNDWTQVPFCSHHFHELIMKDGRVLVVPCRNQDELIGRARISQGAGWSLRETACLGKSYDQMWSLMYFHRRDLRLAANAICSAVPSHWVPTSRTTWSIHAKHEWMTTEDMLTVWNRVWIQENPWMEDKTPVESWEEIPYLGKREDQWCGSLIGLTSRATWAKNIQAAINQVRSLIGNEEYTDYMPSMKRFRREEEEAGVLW

[12] = molecular target: Glucose-6-phosphate 1-dehydrogenase (Homo sapiens, UniProt P11413); experiment: inhibition of Homo sapiens G6PD, dose series – biochemical, fluorescence, selectivity assay for P. falciparum G6PD inhibitor project, dose response (AID 504792); type: functional
Chain of Glucose-6-phosphate 1-dehydrogenase (P11413 whole entry): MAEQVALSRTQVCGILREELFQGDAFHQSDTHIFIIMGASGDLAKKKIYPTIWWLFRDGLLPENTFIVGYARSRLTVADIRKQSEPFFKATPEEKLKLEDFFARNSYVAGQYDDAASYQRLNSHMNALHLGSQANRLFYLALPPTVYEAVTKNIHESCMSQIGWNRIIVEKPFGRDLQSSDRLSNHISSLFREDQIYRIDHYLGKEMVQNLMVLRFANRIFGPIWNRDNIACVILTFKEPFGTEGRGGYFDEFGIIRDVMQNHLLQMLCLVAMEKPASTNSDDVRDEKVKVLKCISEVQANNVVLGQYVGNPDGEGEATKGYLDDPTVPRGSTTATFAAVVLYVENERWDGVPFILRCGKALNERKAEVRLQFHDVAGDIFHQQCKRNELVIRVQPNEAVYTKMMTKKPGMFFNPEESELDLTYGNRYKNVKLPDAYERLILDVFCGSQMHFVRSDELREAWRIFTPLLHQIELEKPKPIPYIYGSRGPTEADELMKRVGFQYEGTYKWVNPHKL

[13] = molecular target: T4, Heat shock factor protein 1 (Mus musculus, UniProt P38532); experiment: enhancement of HSF1-driven luciferase signal – cell-based, NIH3T3, luminescence, dose retest, confirmation (AID 435004); type: functional;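 note: stress induced by proteasome inhibitor MG132 added 30 min after compound; luciferase reporter driven by HSF1 response element in NIH3T3 cells; actives raise luminescence as potentiators of the MG132 stress response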
T4 sequence (P38532 whole entry): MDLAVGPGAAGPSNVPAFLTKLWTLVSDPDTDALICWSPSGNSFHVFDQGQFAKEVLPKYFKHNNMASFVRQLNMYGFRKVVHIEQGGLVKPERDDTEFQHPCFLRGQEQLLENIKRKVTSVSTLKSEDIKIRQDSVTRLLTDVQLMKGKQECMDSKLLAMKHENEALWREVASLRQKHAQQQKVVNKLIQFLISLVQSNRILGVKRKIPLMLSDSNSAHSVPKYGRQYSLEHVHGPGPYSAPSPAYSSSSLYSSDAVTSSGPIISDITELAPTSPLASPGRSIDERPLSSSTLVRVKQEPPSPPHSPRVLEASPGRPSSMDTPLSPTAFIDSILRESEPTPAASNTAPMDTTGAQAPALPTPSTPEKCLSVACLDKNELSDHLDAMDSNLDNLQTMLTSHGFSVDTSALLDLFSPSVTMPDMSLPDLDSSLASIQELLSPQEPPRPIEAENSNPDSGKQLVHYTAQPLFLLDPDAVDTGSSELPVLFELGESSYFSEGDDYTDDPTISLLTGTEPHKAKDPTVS

[14] = test system: H9c2; experiment: cells; type: functional, cell-based; settings: Rattus norvegicus, H9c2, Myocardium;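 note: confirmatory concentration-response retest of ultra-high-throughput screening hits for modulation of myocardial damage; cell death induced by hydrogen peroxide oxidative stress; compound pretreatment for 60 min then peroxide exposure for 2 h; potency is for protecting the cells against peroxide damage rather than for killing them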
[15] = molecular target: T5, Mitochondrial peptide methionine sulfoxide reductase (Bos taurus, UniProt P54149); type: functional;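 note: absorbance read-out, biochemical high-throughput dose-response screen for MsrA inhibitors, confirmatory; recombinant bovine MsrA coupled to E. coli TrxB with NADPH and selenocystamine; potency is for inhibitors of MsrA activity on DMSO substrate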
T5 sequence (P54149 whole entry): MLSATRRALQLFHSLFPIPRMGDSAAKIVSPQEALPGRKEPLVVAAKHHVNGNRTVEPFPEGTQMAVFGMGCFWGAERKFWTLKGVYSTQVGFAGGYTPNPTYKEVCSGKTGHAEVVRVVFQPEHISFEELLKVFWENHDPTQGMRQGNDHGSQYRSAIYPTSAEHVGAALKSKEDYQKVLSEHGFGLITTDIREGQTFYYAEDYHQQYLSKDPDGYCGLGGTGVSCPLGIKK

[16] = Luminescence-based cell-based high throughput dose response assay to identify activators of the DAF-12 from the parasite S. stercoralis (ssDAF-12).; type: functional

In the case of COc1ccc(-c2nn3c(-c4ccccc4)nnc3s2)cc1, the IC50 [1] is reported as > 66.2 µM (inactive), the IC50 [2] is reported as > 49.8 µM (inactive) and the IC50 [3] is reported as 2.44 µM (active). For the same compound, the IC50 [4] was > 5.53 µM (active), the IC50 [5] was > 88.8 µM (inactive) and the IC50 [6] was > 50 µM (inactive).

For CC(C)(C)C(=O)Nc1nc2cc3c(cc2s1)OCO3, the AC50 [7] was 51.9 µM (active).

In the case of Cc1ccc(SC2=C(N(C)C)C(=O)c3ccccc3C2=O)cc1, the IC50 [8] is reported as 8.5 µM (active), the IC50 [9] is reported as 6.72 µM (active) and the CC50 [10] is reported as 22.1 µM (active). For the same compound, the IC50 [11] was 65 µM (active).

In the case of N#CC1=C(N)Oc2c(O)cc3ccccc3c2C1c1ccsc1 (configuration not stated), the IC50 [12] is reported as > 80 µM (inactive), the EC50 [13] is reported as 41.5 µM (active) and the CC50 [10] is reported as > 40 µM (active). For the same compound, the IC50 [14] was > 79 µM (inactive), the IC50 [15] was 155 µM (inactive) and the IC50 [16] was > 67.5 µM (inactive).
